Test results as given in ChEMBL document CHEMBL4742388, “Inhibitors of cyclin-dependent kinase 7 (cdk7)” (2019).

Assays:
A673 = assay: Inhibition of cell proliferation of human A673 cells incubated for 72 hrs by CyQUANT assay; format: functional, cell-based; conditions: A673, 72 h
HCC70 = assay: Inhibition of cell proliferation of human HCC70 cells incubated for 72 hrs by CyQUANT assay; format: functional, cell-based; conditions: HCC70, 72 h

Structure (SMILES)	IC50 (A673)	IC50 (HCC70)
Cn1cc(-c2ccc3[nH]cc(-c4nc(N[C@H]5CCCNC5)ncc4C(F)(F)F)c3c2)cn1	200 nM	
Cc1cccc2c(-c3nc(N[C@H]4CCCNC4)ncc3C(F)(F)F)c[nH]c12	< 20 nM	
FC(F)(F)c1cnc(N[C@H]2CCCNC2)nc1-c1n[nH]c2ccccc12	20 nM	
CC1(O)CCN(C(=O)c2ccc3c(-c4nc(N[C@H]5CCCNC5)ncc4C(F)(F)F)c[nH]c3c2)C1 (single isomer, unassigned)	200 nM	100 nM
Fc1cncc(-c2ccc3c(-c4nc(N[C@H]5CCCNC5)ncc4C(F)(F)F)c[nH]c3c2)c1		100 nM
O=C(c1ccc2c(-c3nc(N[C@H]4CCCNC4)ncc3C(F)(F)F)c[nH]c2c1)N1CC[C@@](O)(C(F)(F)F)C1 (single isomer, unassigned)		100 nM
FC(F)(F)Cc1cnc(N[C@H]2CCCNC2)nc1-c1n[nH]c2ccccc12	20 nM	
CN1CCC[C@H](Nc2ncc(C(F)(F)F)c(-c3c[nH]c4cc(S(=O)(=O)N5CCC(C)(O)C5)ccc34)n2)C1 (some centres undefined)		1000 nM
CCc1cnc(N[C@H]2CCCNC2)nc1-c1c[nH]c2ccccc12	20 nM	
Clc1cnc(NC2CNCCC2c2ccccc2)nc1-c1c[nH]c2ccccc12 (centres undefined)	200 nM	
Clc1cnc(N[C@H]2CCCNC2)nc1-c1c[nH]c2ccncc12	20 nM	
N#Cc1cccc2c(-c3nc(N[C@H]4CCCNC4)ncc3C(F)(F)F)c[nH]c12	< 20 nM	
CC1CCC(Nc2ncc(Cl)c(-c3c[nH]c4ccccc34)n2)CN1 (centres undefined)	20 nM	
CNC(=O)[C@H]1CNC[C@H](Nc2ncc(C(F)(F)F)c(-c3c[nH]c4ccccc34)n2)C1	20 nM	
Cc1cccc2c(-c3nc(N[C@H]4CCCNC4)ncc3F)c[nH]c12	200 nM	
COCCn1cc(-c2nc(N[C@H]3CCCNC3)ncc2Cl)c2ccccc21	200 nM	
CNC(=O)[C@H]1CNC[C@@H](Nc2ncc(C(F)(F)F)c(-c3c[nH]c4ccccc34)n2)C1	200 nM	
Cn1cc(-c2ccc3c(-c4nc(N[C@H]5CCCNC5)ncc4C(F)(F)F)c[nH]c3c2)cn1	< 20 nM	
OC1CCC(c2cccc3c(-c4nc(N[C@H]5CCCNC5)ncc4C(F)(F)F)c[nH]c23)CC1 (some centres undefined)	< 20 nM	
CC[C@@]1(O)CCN(C(=O)c2ccc3c(-c4nc(N[C@H]5CCCNC5)ncc4C(F)(F)F)c[nH]c3c2)C1 (single isomer, unassigned)		1000 nM
CNC(=O)c1cccc2c(-c3nc(N[C@H]4CCCNC4)ncc3C(F)(F)F)cn(C)c12		1000 nM
Clc1cnc(N[C@H]2CCCNC2)nc1-c1cn(-c2ccccc2)c2ccccc12	200 nM	
Clc1cnc(N[C@H]2CCCNC2)nc1-c1c[nH]c2c(N3CCOCC3)cccc12	20 nM	

Structure (SMILES)	IC50 (A673)	IC50 (HCC70)
O=C(O)c1cccc2c(-c3nc(N[C@H]4CCCNC4)ncc3Cl)c[nH]c12	200 nM	
Cc1ccc2[nH]cc(-c3nc(N[C@H]4CCCNC4)ncc3Cl)c2c1	200 nM	
CCOP(=O)(OCC)c1ccc2c(-c3nc(N[C@H]4CCCNC4)ncc3C(F)(F)F)c[nH]c2c1	20 nM	
FC(F)(F)c1cnc(N[C@H]2CCCNC2)nc1-c1c[nH]c2cc(-c3cccc(Oc4ccccc4)c3)ccc12		1000 nM
CC1CCNCC1Nc1ncc(C(F)(F)F)c(-c2c[nH]c3ccccc23)n1 (single isomer, unassigned)		100 nM
Cc1[nH]ncc1-c1cccc2c(-c3nc(N[C@@H]4CCCNC4)ncc3C(F)(F)F)c[nH]c12	< 20 nM	1000 nM
Clc1cnc(NC2(c3ccccc3)CCCNC2)nc1-c1c[nH]c2ccccc12 (centres undefined)	200 nM	
N#Cc1ccc2[nH]cc(-c3nc(N[C@H]4CCCNC4)ncc3C(F)(F)F)c2c1	200 nM	
N#Cc1ccc2c(-c3nc(N[C@@H]4CCCNC4)ncc3C(F)(F)F)c[nH]c2c1-c1ccnnc1	< 20 nM	< 100 nM
F[C@@H]1CCNC[C@H]1Nc1ncc(Cl)c(-c2c[nH]c3ccccc23)n1	20 nM	
FC(F)(F)c1cnc(N[C@H]2CCCNC2)nc1-c1c[nH]c2ccc(-c3cn[nH]c3)cc12	200 nM	
C[C@H]1CCNC[C@@H]1Nc1ncc(C(F)(F)F)c(-c2c[nH]c3ccccc23)n1		1000 nM
Clc1cnc(N[C@H]2CCCNC2)nc1-c1cnn2ccccc12	20 nM	100 nM
CCc1cnc(N[C@H]2CCCNC2)nc1-c1c[nH]c2c(C)cccc12	20 nM	
Clc1cnc(N[C@H]2CCCNC2)nc1-c1c[nH]c2ccc(N3CCOCC3)cc12	20 nM	
Brc1cnc(N[C@@H]2CCCNC2)nc1-c1c[nH]c2ccccc12	< 20 nM	
Clc1cnc(N[C@H]2CCCNC2)nc1-c1c[nH]c2cccnc12	20 nM	
O[C@H]1CC[C@@H](c2cccc3c(-c4nc(N[C@H]5CCCNC5)ncc4C(F)(F)F)c[nH]c32)CC1	200 nM	
CCc1cnc(N[C@@H]2CCCNC2)nc1-c1n[nH]c2ncccc12	20 nM	
C[C@@H]1CNC[C@@H](Nc2ncc(Cl)c(-c3c[nH]c4ccccc34)n2)C1	20 nM	
CC1(C)CCNC[C@H]1Nc1ncc(C(F)(F)F)c(-c2c[nH]c3ccccc23)n1	200 nM	
CC[C@]1(O)CCN(C(=O)c2ccc3c(-c4nc(N[C@H]5CCCNC5)ncc4C(F)(F)F)c[nH]c3c2)C1 (single isomer, unassigned)		100 nM
CC1(Nc2ncc(Cl)c(-c3c[nH]c4ccccc34)n2)CCCNC1 (centres undefined)	200 nM	

Structure (SMILES)	IC50 (A673)	IC50 (HCC70)
Clc1cnc(N[C@H]2CCCNC2)nc1-c1c[nH]c2ncccc12	20 nM	< 100 nM
N#Cc1ccc2c(-c3nc(N[C@@H]4CCC5(CCC5)NC4)ncc3C(F)(F)F)c[nH]c2c1 (single isomer, unassigned)		100 nM
Cc1[nH]c2ccccc2c1-c1nc(N[C@H]2CCCNC2)ncc1Cl	20 nM	
Fc1cccc2c(-c3nc(N[C@H]4CCCNC4)ncc3C(F)(F)F)n[nH]c12	< 20 nM	
CC1NCCCC1Nc1ncc(Cl)c(-c2c[nH]c3ccccc23)n1 (centres undefined)	20 nM	
COCCn1cc(-c2nc(N[C@H]3CCCNC3)ncc2C(F)(F)F)c2ccccc21	200 nM	
FC(F)(F)c1cnc(N[C@H]2CCCNC2)nc1-c1c[nH]c2ccc(Cl)cc12	< 20 nM	
FC(F)(F)c1cnc(N[C@@H]2CNC[C@H](c3nnc4ccccn34)C2)nc1-c1c[nH]c2ccccc12	≤ 20 nM	
Clc1cnc(N[C@H]2CCCNC2)nc1-c1c[nH]c2ccccc12	≤ 20 nM	
CCOP(=O)(OCC)c1ccc2[nH]cc(-c3nc(N[C@H]4CCCNC4)ncc3C(F)(F)F)c2c1	200 nM	
CS(=O)(=O)c1cccc2c(-c3nc(N[C@H]4CCCNC4)ncc3C(F)(F)F)c[nH]c12	< 20 nM	< 100 nM
Clc1cnc(N[C@@H]2CCCNC2)nc1-c1c[nH]c2ccccc12	20 nM	
Cc1cccc2c(-c3nc(N[C@H]4CCCNC4)ncc3Cl)c[nH]c12	< 20 nM	< 100 nM
Cc1cccc2c(-c3nc(N[C@H]4CCCNC4)ncc3CC(C)C)c[nH]c12	200 nM	
N#Cc1ccc2c(-c3nc(N[C@H]4CCC5(CCC5)NC4)ncc3C(F)(F)F)c[nH]c2c1 (single isomer, unassigned)		1000 nM
C[C@H]1CCNC[C@@H]1Nc1ncc(Cl)c(-c2c[nH]c3ccccc23)n1	200 nM	
CC1(C)CCNC[C@@H]1Nc1ncc(C(F)(F)F)c(-c2c[nH]c3ccccc23)n1 (single isomer, unassigned)	20 nM	
CNC(=O)c1ccc2c(-c3nc(N[C@H]4CCCNC4)ncc3C(F)(F)F)c[nH]c2c1	20 nM	
Fc1cccc2c(-c3nc(N[C@H]4CCCNC4)ncc3Cl)n[nH]c12	< 20 nM	
N#Cc1ccc2c(-c3nc(N[C@H]4CCCNC4)ncc3Cl)c[nH]c2c1	< 20 nM	< 100 nM
Fc1ccc2[nH]cc(-c3nc(N[C@H]4CCCNC4)ncc3Cl)c2c1	20 nM	100 nM
N#C[C@@H]1CCN(C(=O)c2ccc3c(-c4nc(N[C@H]5CCCNC5)ncc4C(F)(F)F)c[nH]c3c2)C1	20 nM	100 nM
CC(C)n1cc(-c2nc(N[C@H]3CCCNC3)ncc2Cl)c2ccccc21	200 nM	

Structure (SMILES)	IC50 (A673)	IC50 (HCC70)
CC(C)c1cnc(N[C@H]2CCCNC2)nc1-c1c[nH]c2ccccc12	200 nM	1000 nM
FC(F)(F)c1cnc(N[C@H]2CCCNC2)nc1-c1c[nH]c2cc(-c3cn[nH]c3)ccc12	20 nM	
O=C(c1ccc2c(-c3nc(N[C@H]4CCCNC4)ncc3C(F)(F)F)c[nH]c2c1)N1CC[C@](O)(C(F)(F)F)C1 (single isomer, unassigned)		1000 nM
CC(=O)c1cccc2c(-c3nc(N[C@H]4CCCNC4)ncc3Cl)c[nH]c12	< 20 nM	
Fc1cnc2[nH]cc(-c3nc(N[C@H]4CCCNC4)ncc3C(F)(F)F)c2c1	< 20 nM	< 100 nM
CNC(=O)c1cccc2c(-c3nc(N[C@H]4CCCNC4)ncc3C(F)(F)F)c[nH]c12	20 nM	100 nM
O[C@@H]1CCNC[C@H]1Nc1ncc(Cl)c(-c2c[nH]c3ccccc23)n1	200 nM	
CCc1cnc(N[C@H]2CCCNC2)nc1-c1c[nH]c2ncc(F)cc12	200 nM	
Cc1cnc(N[C@H]2CCCNC2)nc1-c1c[nH]c2ccccc12	20 nM	
COC1CCN(C(=O)c2ccc3c(-c4nc(N[C@H]5CCCNC5)ncc4C(F)(F)F)c[nH]c3c2)C1 (single isomer, unassigned)		100 nM
FC(F)(F)c1cnc(N[C@H]2CCCNC2)nc1-c1c[nH]c2cnc(Cl)cc12	20 nM	100 nM
Fc1cc2[nH]nc(-c3nc(N[C@H]4CCCNC4)ncc3C(F)(F)F)c2cc1F	< 20 nM	
C[C@@H](O)c1cnc(N[C@H]2CCCNC2)nc1-c1c[nH]c2ccccc12	200 nM	
CNC(=O)[C@@H]1CNC[C@H](Nc2ncc(C(F)(F)F)c(-c3c[nH]c4ccccc34)n2)C1	20 nM	
C[C@H](O)c1cnc(N[C@H]2CCCNC2)nc1-c1c[nH]c2ccccc12	200 nM	
CCc1cnc(N[C@H]2CCCNC2)nc1-c1n[nH]c2ccccc12	20 nM	
Fc1cccc2c(-c3nc(N[C@H]4CCCNC4)ncc3Cl)c[nH]c12	< 20 nM	100 nM
FC(F)(F)c1cnc(N[C@H]2CCCNC2)nc1-c1c[nH]c2c(Cl)cccc12	< 20 nM	
FC(F)(F)c1cnc(N[C@H]2CNC[C@@H](c3nnc4ccccn34)C2)nc1-c1c[nH]c2ccccc12	200 nM	
CNC(=O)[C@@H]1CNC[C@@H](Nc2ncc(C(F)(F)F)c(-c3c[nH]c4ccccc34)n2)C1	200 nM	
